# Target: KRasG12C (M1-K169, biotinylated on the N-terminus) (Homo sapiens (Human), UniProt P01116, G12C)
# Assay: Covalent competition assay: scintillation proximity assay (SPA) quantifying covalent modification of KRASG12C
# Type: binding
# Details: competition with radiolabeled covalent probe (Compound B/Compound A), 2 hours incubation, 10 nM KRasG12C
# How it was run: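 Scintillation proximity readout after streptavidin bead capture (30 min) of biotinylated KRasG12C(M1-K169):GDP, 10 nM final, which was covalently labelled over 2 h by 25 nM radio-probe plus 475 nM cold probe unless blocked by compound.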
row,Structure (SMILES),IC50 [nM]
1,"C=CC(=O)N1CC2(CC(n3nc(N4CCCc5c(cnn5C)C4)c(-c4c(Cl)c(C)cc5[nH]ncc45)c3C)C2)C1 (single isomer, unassigned) [Example 43a, 1-(6-(4-(5-chloro-6-methyl-1H-indazol-4-yl)-5-methyl-3-(1-methyl-4,6,7,8-tetrahydropyrazolo[4,3-c]azepin-5(1H)-yl)-1H-pyrazol-1-yl)-2-azaspiro[3.3]heptan-2-yl)prop-2-en-1-one]",> 50000
2,"C=CC(=O)N1CC2(CC(n3nc(N4CCCc5c(cnn5C)C4)c(-c4c(Cl)c(C)cc5[nH]ncc45)c3C)C2)C1 (single isomer, unassigned) [Example 43b, 1-(6-(4-(5-chloro-6-methyl-1H-indazol-4-yl)-5-methyl-3-(1-methyl-4,6,7,8-tetrahydropyrazolo[4,3-c]azepin-5(1H)-yl)-1H-pyrazol-1-yl)-2-azaspiro[3.3]heptan-2-yl)prop-2-en-1-one]",758
3,"C=CC(=O)N1CC2(CC(n3nc(N4CCC(n5ccnc5)CC4(C)C)c(-c4c(Cl)c(C)cc5[nH]ncc45)c3C)C2)C1 (single isomer, unassigned) [Example 44a, 1-(6-(3-(4-(1H-imidazol-1-yl)-2,2-dimethylpiperidin-1-yl)-4-(5-chloro-6-methyl-1H-indazol-4-yl)-5-methyl-1H-pyrazol-1-yl)-2-azaspiro[3.3]heptan-2-yl)prop-2-en-1-one]",4600
4,"C=CC(=O)N1CC2(CC(n3nc(N4CCC(n5ccnc5)CC4(C)C)c(-c4c(Cl)c(C)cc5[nH]ncc45)c3C)C2)C1 (single isomer, unassigned) [Example 44b, 1-(6-(3-(4-(1H-imidazol-1-yl)-2,2-dimethylpiperidin-1-yl)-4-(5-chloro-6-methyl-1H-indazol-4-yl)-5-methyl-1H-pyrazol-1-yl)-2-azaspiro[3.3]heptan-2-yl)prop-2-en-1-one]",20
5,"C=CC(=O)N1CC2(CC(n3nc(N4CCC(n5ccnc5)CC4(C)C)c(-c4c(Cl)c(C)cc5[nH]ncc45)c3C)C2)C1 (single isomer, unassigned) [Example 45a, 1-(6-(3-(4-(1H-imidazol-1-yl)-2,2-dimethylpiperidin-1-yl)-4-(5-chloro-6-methyl-1H-indazol-4-yl)-5-methyl-1H-pyrazol-1-yl)-2-azaspiro[3.3]heptan-2-yl)prop-2-en-1-one]",365
6,"C=CC(=O)N1CC2(CC(n3nc(N4CCC(n5ccnc5)CC4(C)C)c(-c4c(Cl)c(C)cc5[nH]ncc45)c3C)C2)C1 (single isomer, unassigned) [Example 45b, 1-(6-(3-(4-(1H-imidazol-1-yl)-2,2-dimethylpiperidin-1-yl)-4-(5-chloro-6-methyl-1H-indazol-4-yl)-5-methyl-1H-pyrazol-1-yl)-2-azaspiro[3.3]heptan-2-yl)prop-2-en-1-one]",1500
7,"C=CC(=O)N1CC2(CC(n3nc(N4CCC(N(CC)C5COC5)CC4(C)C)c(-c4c(Cl)c(C)cc5[nH]ncc45)c3C)C2)C1 (single isomer, unassigned) [Example 48a, 1-(6-(4-(5-chloro-6-methyl-1H-indazol-4-yl)-3-(4-(ethyl(oxetan-3-yl)amino)-2,2-dimethylpiperidin-1-yl)-5-methyl-1H-pyrazol-1-yl)-2-azaspiro[3.3]heptan-2-yl)prop-2-en-1-one]",296
8,"C=CC(=O)N1CC2(CC(n3nc(N4CCC(N(CC)C5COC5)CC4(C)C)c(-c4c(Cl)c(C)cc5[nH]ncc45)c3C)C2)C1 (single isomer, unassigned) [Example 48b, 1-(6-(4-(5-chloro-6-methyl-1H-indazol-4-yl)-3-(4-(ethyl(oxetan-3-yl)amino)-2,2-dimethylpiperidin-1-yl)-5-methyl-1H-pyrazol-1-yl)-2-azaspiro[3.3]heptan-2-yl)prop-2-en-1-one]",6
9,"C=CC(=O)N1CC2(CC(n3nc(N4CCN(C5COC5)CC45CCC5)c(-c4c(C)c(O)cc(C)c4Cl)c3C)C2)C1 (single isomer, unassigned) [Example 49a, 1-(6-(4-(2-chloro-5-hydroxy-3,6-dimethylphenyl)-5-methyl-3-(8-(oxetan-3-yl)-5,8-diazaspiro[3.5]nonan-5-yl)-1H-pyrazol-1-yl)-2-azaspiro[3.3]heptan-2-yl)prop-2-en-1-one]",1790
10,"C=CC(=O)N1CC2(CC(n3nc(N4CCN(C5COC5)CC45CCC5)c(-c4c(C)c(O)cc(C)c4Cl)c3C)C2)C1 (single isomer, unassigned) [Example 49b, 1-(6-(4-(2-chloro-5-hydroxy-3,6-dimethylphenyl)-5-methyl-3-(8-(oxetan-3-yl)-5,8-diazaspiro[3.5]nonan-5-yl)-1H-pyrazol-1-yl)-2-azaspiro[3.3]heptan-2-yl)prop-2-en-1-one]",> 5000
11,"C=CC(=O)N1CC2(CC(n3nc(N4CCC(N(C)C5COC5)CC4(C)C)c(-c4c(Cl)c(Cl)cc5[nH]ncc45)c3C)C2)C1 (single isomer, unassigned) [Example 50a, 1-(6-(4-(5,6-dichloro-1H-indazol-4-yl)-3-(2,2-dimethyl-4-(methyl(oxetan-3-yl)amino)piperidin-1-yl)-5-methyl-1H-pyrazol-1-yl)-2-azaspiro[3.3]heptan-2-yl)prop-2-en-1-one]",273
12,"C=CC(=O)N1CC2(CC(n3nc(N4CCC(N(C)C5COC5)CC4(C)C)c(-c4c(Cl)c(Cl)cc5[nH]ncc45)c3C)C2)C1 (single isomer, unassigned) [Example 50b, 1-(6-(4-(5,6-dichloro-1H-indazol-4-yl)-3-(2,2-dimethyl-4-(methyl(oxetan-3-yl)amino)piperidin-1-yl)-5-methyl-1H-pyrazol-1-yl)-2-azaspiro[3.3]heptan-2-yl)prop-2-en-1-one]",5
13,"C=CC(=O)N1CC2(CC(n3nc(N4CCC(N(C)C5COC5)CC45CCC5)c(-c4c(Cl)c(C)cc5[nH]ncc45)c3C)C2)C1 (single isomer, unassigned) [Example 51a, 1-(6-(4-(5-chloro-6-methyl-1H-indazol-4-yl)-5-methyl-3-(8-(methyl(oxetan-3-yl)amino)-5-azaspiro[3.5]nonan-5-yl)-1H-pyrazol-1-yl)-2-azaspiro[3.3]heptan-2-yl)prop-2-en-1-one]",10
14,"C=CC(=O)N1CC2(CC(n3nc(N4CCC(N(C)C5COC5)CC45CCC5)c(-c4c(Cl)c(C)cc5[nH]ncc45)c3C)C2)C1 (single isomer, unassigned) [Example 51b, 1-(6-(4-(5-chloro-6-methyl-1H-indazol-4-yl)-5-methyl-3-(8-(methyl(oxetan-3-yl)amino)-5-azaspiro[3.5]nonan-5-yl)-1H-pyrazol-1-yl)-2-azaspiro[3.3]heptan-2-yl)prop-2-en-1-one]",668
15,"C=CC(=O)N1CC2(CC(n3nc(N4CCN(C5COC5)CC45CCC5)c(-c4c(Cl)c(C)cc5[nH]ncc45)c3C)C2)C1 (single isomer, unassigned) [Example 54a, 1-(6-(4-(5-Chloro-6-methyl-1H-indazol-4-yl)-5-methyl-3-(8-(oxetan-3-yl)-5,8-diazaspiro[3.5]nonan-5-yl)-1H-pyrazol-1-yl)-2-azaspiro[3.3]heptan-2-yl)prop-2-en-1-one]",17800

# The remaining lines, values ahead:
row,IC50 [nM],Structure (SMILES)
1,149,"C=CC(=O)N1CC2(CC(n3nc(N4CCn5nccc5C4C)c(-c4c(Cl)c(C)cc5[nH]ncc45)c3C)C2)C1 (single isomer, unassigned) [Example 41b, 1-(6-(4-(5-chloro-6-methyl-1H-indazol-4-yl)-5-methyl-3-(4-methyl-6,7-dihydropyrazolo[1,5-a]pyrazin-5(4H)-yl)-1H-pyrazol-1-yl)-2-azaspiro[3.3]heptan-2-yl)prop-2-en-1-one]"
2,> 50000,"C=CC(=O)N1CC2(CC(n3nc(N4CCn5nccc5C4C)c(-c4c(Cl)c(C)cc5[nH]ncc45)c3C)C2)C1 (single isomer, unassigned) [Example 42a, 1-(6-(4-(5-chloro-6-methyl-1H-indazol-4-yl)-5-methyl-3-(4-methyl-6,7-dihydropyrazolo[1,5-a]pyrazin-5(4H)-yl)-1H-pyrazol-1-yl)-2-azaspiro[3.3]heptan-2-yl)prop-2-en-1-one]"
3,186,"C=CC(=O)N1CC2(CC(n3nc(N4CCn5nccc5C4C)c(-c4c(Cl)c(C)cc5[nH]ncc45)c3C)C2)C1 (single isomer, unassigned) [Example 42b, 1-(6-(4-(5-chloro-6-methyl-1H-indazol-4-yl)-5-methyl-3-(4-methyl-6,7-dihydropyrazolo[1,5-a]pyrazin-5(4H)-yl)-1H-pyrazol-1-yl)-2-azaspiro[3.3]heptan-2-yl)prop-2-en-1-one]"
4,4900,"C=CC(=O)N1CC2(CCC(n3nc(N4CCN(C(C)=O)CC4)c(-c4c(Cl)ccc5[nH]ncc45)c3C)C2)C1 (single isomer, unassigned) [Example 53a, 1-(6-(3-(4-acetylpiperazin-1-yl)-4-(5-chloro-1H-indazol-4-yl)-5-methyl-1H-pyrazol-1-yl)-2-azaspiro[3.4]octan-2-yl)prop-2-en-1-one]"
5,> 50000,"C=CC(=O)N1CC2(CCC(n3nc(N4CCN(C(C)=O)CC4)c(-c4c(Cl)ccc5[nH]ncc45)c3C)C2)C1 (single isomer, unassigned) [Example 53b, 1-(6-(3-(4-acetylpiperazin-1-yl)-4-(5-chloro-1H-indazol-4-yl)-5-methyl-1H-pyrazol-1-yl)-2-azaspiro[3.4]octan-2-yl)prop-2-en-1-one]"
6,> 50000,"C=CC(=O)N1CC2(CCC(n3nc(N4CCN(C(C)=O)CC4)c(-c4c(Cl)ccc5[nH]ncc45)c3C)C2)C1 (single isomer, unassigned) [Example 53c, 1-(6-(3-(4-acetylpiperazin-1-yl)-4-(5-chloro-1H-indazol-4-yl)-5-methyl-1H-pyrazol-1-yl)-2-azaspiro[3.4]octan-2-yl)prop-2-en-1-one]"
7,9030,"C=CC(=O)N1CC2(CCC(n3nc(N4CCN(C(C)=O)CC4)c(-c4c(Cl)ccc5[nH]ncc45)c3C)C2)C1 (single isomer, unassigned) [Example 53d, 1-(6-(3-(4-acetylpiperazin-1-yl)-4-(5-chloro-1H-indazol-4-yl)-5-methyl-1H-pyrazol-1-yl)-2-azaspiro[3.4]octan-2-yl)prop-2-en-1-one]"

# Source: patent publication US20240317721A1, “PYRAZOLYL DERIVATIVES AS INHIBITORS OF THE KRAS MUTANT PROTEIN” (NOVARTIS AG, priority 2021, published 2024)
